In patent US10457655B2, “Compounds and compositions for inhibition of FASN” (FORMA Therapeutics, Inc., priority 2013, dated 2019) one finds IC50 data, which are given here for 39 molecules.

Usually IC50 stands for the point on the concentration scale where inhibition reaches its midpoint. Low readings indicate greater potency, high ones weaker potency.

The target in one test is FASN enzyme (Homo sapiens, UniProt P49327). Kind of test: Enzymatic Assay for FASN Inhibitors. The class given is biochemical.
FASN enzyme, sequence (P49327 whole entry): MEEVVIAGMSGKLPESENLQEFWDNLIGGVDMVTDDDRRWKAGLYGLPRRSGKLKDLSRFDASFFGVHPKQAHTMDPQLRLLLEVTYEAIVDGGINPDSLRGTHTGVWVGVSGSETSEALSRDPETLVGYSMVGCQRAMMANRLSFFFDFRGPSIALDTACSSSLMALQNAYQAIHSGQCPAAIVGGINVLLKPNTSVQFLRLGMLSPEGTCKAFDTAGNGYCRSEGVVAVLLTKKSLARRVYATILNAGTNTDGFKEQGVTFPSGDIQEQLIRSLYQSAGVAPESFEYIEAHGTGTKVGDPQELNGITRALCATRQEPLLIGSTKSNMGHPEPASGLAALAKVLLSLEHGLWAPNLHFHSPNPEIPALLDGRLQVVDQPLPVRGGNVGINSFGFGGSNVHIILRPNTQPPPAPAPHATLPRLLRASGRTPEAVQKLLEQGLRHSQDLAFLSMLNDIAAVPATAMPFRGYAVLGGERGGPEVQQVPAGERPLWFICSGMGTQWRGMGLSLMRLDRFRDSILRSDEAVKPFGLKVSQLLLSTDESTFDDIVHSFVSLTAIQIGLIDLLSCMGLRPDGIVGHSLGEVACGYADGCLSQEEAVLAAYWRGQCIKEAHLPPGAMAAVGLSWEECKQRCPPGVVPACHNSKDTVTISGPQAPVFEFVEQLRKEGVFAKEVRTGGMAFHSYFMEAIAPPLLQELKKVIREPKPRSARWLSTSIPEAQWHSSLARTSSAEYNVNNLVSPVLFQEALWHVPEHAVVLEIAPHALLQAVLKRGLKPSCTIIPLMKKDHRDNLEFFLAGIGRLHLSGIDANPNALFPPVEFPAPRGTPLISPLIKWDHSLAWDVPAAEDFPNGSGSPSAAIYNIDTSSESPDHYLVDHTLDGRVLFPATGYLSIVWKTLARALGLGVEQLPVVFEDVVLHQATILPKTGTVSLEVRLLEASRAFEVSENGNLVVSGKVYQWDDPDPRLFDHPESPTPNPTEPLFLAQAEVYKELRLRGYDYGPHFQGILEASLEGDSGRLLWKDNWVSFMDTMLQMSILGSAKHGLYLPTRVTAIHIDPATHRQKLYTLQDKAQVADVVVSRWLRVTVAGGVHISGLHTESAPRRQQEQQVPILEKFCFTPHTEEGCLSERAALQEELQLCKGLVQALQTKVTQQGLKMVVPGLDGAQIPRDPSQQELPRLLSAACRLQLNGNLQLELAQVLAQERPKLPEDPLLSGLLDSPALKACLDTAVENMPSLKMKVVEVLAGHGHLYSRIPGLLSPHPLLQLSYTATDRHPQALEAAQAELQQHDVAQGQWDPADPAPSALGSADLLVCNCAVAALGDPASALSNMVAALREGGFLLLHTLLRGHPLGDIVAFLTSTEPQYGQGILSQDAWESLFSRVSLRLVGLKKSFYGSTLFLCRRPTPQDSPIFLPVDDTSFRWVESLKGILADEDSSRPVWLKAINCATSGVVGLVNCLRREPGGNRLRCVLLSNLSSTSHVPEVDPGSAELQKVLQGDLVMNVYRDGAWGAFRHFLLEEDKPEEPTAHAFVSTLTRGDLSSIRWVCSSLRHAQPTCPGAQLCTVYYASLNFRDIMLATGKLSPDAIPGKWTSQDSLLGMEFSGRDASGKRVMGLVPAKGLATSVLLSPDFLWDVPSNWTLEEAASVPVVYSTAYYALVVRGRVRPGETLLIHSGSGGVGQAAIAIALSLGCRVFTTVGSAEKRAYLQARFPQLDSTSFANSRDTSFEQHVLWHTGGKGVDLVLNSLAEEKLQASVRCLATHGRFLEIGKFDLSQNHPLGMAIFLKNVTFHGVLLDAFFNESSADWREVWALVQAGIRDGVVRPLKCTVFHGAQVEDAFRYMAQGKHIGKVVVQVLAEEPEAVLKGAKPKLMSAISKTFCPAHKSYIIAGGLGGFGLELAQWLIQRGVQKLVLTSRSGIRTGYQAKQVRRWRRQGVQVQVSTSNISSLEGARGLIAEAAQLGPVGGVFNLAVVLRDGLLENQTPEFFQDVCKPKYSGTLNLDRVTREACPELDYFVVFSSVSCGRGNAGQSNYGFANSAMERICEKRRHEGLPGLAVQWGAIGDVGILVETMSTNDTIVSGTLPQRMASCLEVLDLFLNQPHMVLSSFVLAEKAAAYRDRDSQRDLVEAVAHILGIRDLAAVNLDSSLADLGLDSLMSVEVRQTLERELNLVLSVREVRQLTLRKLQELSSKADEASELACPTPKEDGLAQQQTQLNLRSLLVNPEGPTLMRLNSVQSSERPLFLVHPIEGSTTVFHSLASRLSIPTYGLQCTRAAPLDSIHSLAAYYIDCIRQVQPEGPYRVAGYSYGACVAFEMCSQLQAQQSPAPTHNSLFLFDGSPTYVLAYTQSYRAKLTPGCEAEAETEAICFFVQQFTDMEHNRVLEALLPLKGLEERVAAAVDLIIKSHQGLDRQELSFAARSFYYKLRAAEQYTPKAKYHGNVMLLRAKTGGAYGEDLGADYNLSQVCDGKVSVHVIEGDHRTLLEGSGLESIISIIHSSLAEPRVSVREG
Settings: not given
The method, then:
Assays were performed in a 384-well black plate to measure the inhibition of FASN activities by individual compounds herein disclosed. An aliquot of 250 nL of compound was incubated with 10 μL of 40 nM FASN enzyme in assay buffer (50 mM HEPES pH=7.3, 0.5 mM EDTA, 1 mM Ascorbate, 100 mM NaCl and 0.04% TritonX-100) in each well at 25° C. for 60 minutes. After the plate was centrifuged briefly, 10 μL of substrate mix (20 μM Acetyl-CoA, 60 μM Malonyl-CoA, and 100 μM NADPH in assay buffer) was added to each well. The reaction was maintained at 25° C. for 90 minutes. The reaction was then quenched by adding 10 μL of 90 μM 7-Diethylamino-3-(4′-Maleimidylpheynyl)-4-Methylcoumarin in 50/50 Ethanol/H2O solution. The assay plate was incubated at 25° C. for 15 minutes, and read on a plate reader with excitation and emission wavelength at 360 nm and 530 nm, respectively. The IC50 of a given compound was calculated by fitting the dose response curve with a four parameter logistic equation.
`Cn1ccc2cc(-c3cnc(C(=O)N4CCN(C(=O)C5(O)CC5)CC4)cn3)ccc21` [1-[(4-{[5-(1-methyl-1H-indol-5-yl)pyrazin-2-yl]carbonyl}piperazin-1-yl)carbonyl]cyclopropan-1-ol] yielded an IC50 of under 500 nM. The molecule `NC(=O)c1cc2cc(-c3ccc(C(=O)N4CCN(C(=O)C5(O)CC5)CC4)cc3)ccc2[nH]1` [5-[4-({4-[(1-hydroxycyclopropyl)carbonyl]piperazin-1-yl}carbonyl)phenyl]-1H-indole-2-carboxamide] registered an IC50 of under 500 nM. Molecule `Nc1noc2cc(-c3ccc(C(=O)N4CCN(C(=O)C5(O)CC5)CC4)cc3)ccc12` [1-{4-[4-(3-amino-1,2-benzoxazol-6-yl)benzoyl]piperazine-1-carbonyl}cyclopropan-1-ol] came in with an IC50 of under 500 nM.

The molecule `O=C(c1ccc(-c2ccc(Cl)c(Cl)c2)cc1)N1CCN(C(=O)C2(O)CC2)CC1` [1-[(4-{[4-(3,4-dichlorophenyl)phenyl]carbonyl}piperazin-1-yl)carbonyl]cyclopropan-1-ol] displayed an IC50 of under 500 nM. Consider `C[C@H]1CN(C(=O)c2ccc(-c3nc4ccc(F)cc4o3)cc2)CCN1C(=O)C1(O)CC1`, for which the IC50 is under 500 nM.

`Cn1cc(-c2ccc(-c3ccc(C(=O)N4CCN(C(=O)C5(O)CC5)CC4)cc3)cc2)cn1` [1-(4-{4-[4-(1-methyl-1H-pyrazol-4-yl)phenyl]benzoyl}piperazine-1-carbonyl)cyclopropan-1-ol] displayed an IC50 of under 500 nM. On the same count and under the same terms, the same measure for `Cc1n[nH]c2cccc(-c3ccc(C(=O)N4CCN(C(=O)C5(O)CC5)CC4)cc3)c12` [1-{4-[4-(3-methyl-1H-indazol-4-yl)benzoyl]piperazine-1-carbonyl}cyclopropan-1-ol]: under 500 nM. Regarding `COc1ccc(OC(F)(F)F)cc1-c1ccc(C(=O)N2CCN(C(=O)C3(O)CC3)CC2)cc1`, the IC50 is under 500 nM. Regarding `O=C(c1ccc(-c2nc3ccccn3c2Cl)c(F)c1)N1CCN(C(=O)C2(O)CC2)CC1` [1-[4-(4-{3-chloroimidazo[1,2-a]pyridin-2-yl}-3-fluorobenzoyl)piperazine-1-carbonyl]cyclopropan-1-ol], the IC50 was under 500 nM. Regarding `O=C(c1ccc(-c2ccc(Cl)cc2F)c(Cl)c1)N1CCN(C(=O)C2(O)CC2)CC1` [1-{4-[3-chloro-4-(4-chloro-2-fluorophenyl)benzoyl]piperazine-1-carbonyl}cyclopropan-1-ol], the IC50 was under 500 nM.

Regarding `Cn1cc2ccc(-c3ccc(C(=O)N4CCN(C(=O)C5(O)CC5)CC4)c(Cl)c3)cc2n1` [1-{4-[2-chloro-4-(2-methyl-2H-indazol-6-yl)benzoyl]piperazine-1-carbonyl}cyclopropan-1-ol], the IC50 is under 500 nM. Molecule `C[C@H]1CN(C(=O)c2ccc(-c3nc4ccc(Cl)cc4o3)cc2)CCN1C(=O)C1(O)CC1` [1-[(2S)-4-[4-(6-chloro-1,3-benzoxazol-2-yl)benzoyl]-2-methylpiperazine-1-carbonyl]cyclopropan-1-ol] displayed an IC50 of under 500 nM.

As for `Cc1n[nH]c2cc(-c3ccc(C(=O)N4CCN(C(=O)C5(N)CC5)CC4)cc3)ccc12` [1-{4-[4-(3-methyl-1H-indazol-6-yl)benzoyl]piperazine-1-carbonyl}cyclopropan-1-amine], the IC50 is under 500 nM. With `O=C(c1ccc(-c2cc(F)c3[nH]ccc3c2)cc1)N1CCN(C(=O)C2(O)CC2)CC1`, the IC50 was under 500 nM.

Molecule `Cn1cnc2cc(-c3ccc(C(=O)N4CCN(C(=O)C5(N)CCC5)CC4)cc3)ccc21` returned an IC50 of under 500 nM.

In turn, `Cn1ncc2ccc(-c3ccc(C(=O)N4CCN(C(=O)C5(O)CC5)CC4)cc3Cl)cc21` [1-{4-[3-chloro-4-(1-methyl-1H-indazol-6-yl)benzoyl]piperazine-1-carbonyl}cyclopropan-1-ol] came in with an IC50 of under 500 nM. The molecule `Nc1noc2ccc(-c3ccc(C(=O)N4CCN(C(=O)C5(N)CC5)CC4)cc3)cc12` [5-{4-[4-(1-aminocyclopropanecarbonyl)piperazine-1-carbonyl]phenyl}-1,2-benzoxazol-3-amine] returned a half-inhibitory concentration (IC50) of under 500 nM. On to `Cn1cc2ccc(-c3ccc(C(=O)N4CCN(C(=O)C5(N)CC5)CC4)c(F)c3)cc2n1` [1-{4-[2-fluoro-4-(2-methyl-2H-indazol-6-yl)benzoyl]piperazine-1-carbonyl}cyclopropan-1-amine], for which the IC50 was under 500 nM. Turning to `Cn1cnc2cc(-c3ccc(C(=O)N4CCN(C(=O)C5(N)CCC5)CC4)c(F)c3)ccc21` [1-{4-[2-fluoro-4-(1-methyl-1H-1,3-benzodiazol-5-yl)benzoyl]piperazine-1-carbonyl}cyclobutan-1-amine], the IC50 is under 500 nM.

Molecule `COc1ccc2nc(-c3ccc(C(=O)N4CCN(C(=O)C5(O)CC5)CC4)cc3)oc2c1` [1-{4-[4-(6-methoxy-1,3-benzoxazol-2-yl)benzoyl]piperazine-1-carbonyl}cyclopropan-1-ol] had an IC50 of under 500 nM.

In turn, `O=C(c1ccc(-c2cccc(NS(=O)(=O)C3CCCC3)c2)cc1)N1CCN(C(=O)C2(O)CC2)CC1` gave an IC50 of under 500 nM. On to `O=C(c1ccc(N2Cc3ccccc3C2)cc1)N1CCN(C(=O)C2(O)CC2)CC1` [1-{4-[4-(2,3-dihydro-1H-isoindol-2-yl)benzoyl]piperazine-1-carbonyl}cyclopropan-1-ol], for which the IC50 was under 500 nM.

`O=C(c1ccc(-c2cccc(OC3CC3)c2)cc1)N1CCN(C(=O)C2(O)CC2)CC1`: the IC50 was under 500 nM. In turn, `O=C(c1ccc(-c2ccc3cc(F)ccc3n2)cc1)N1CCN(C(=O)C2(O)CC2)CC1` [1-[(4-{[4-(6-fluoroquinolin-2-yl)phenyl]carbonyl}piperazin-1-yl)carbonyl]cyclopropan-1-ol] came in with an IC50 of under 500 nM. Same read-out and setting: the value for `O=C(c1ccc(-c2cccc(S(=O)(=O)NC3CC3)c2)cc1)N1CCN(C(=O)C2(O)CC2)CC1` [N-cyclopropyl-3-[4-({4-[(1-hydroxycyclopropyl)carbonyl]piperazin-1-yl}carbonyl)phenyl]benzene-1-sulfonamide] was under 500 nM. In the case of `O=C(c1ccc(-c2ccc3cc(F)ccc3n2)cc1F)N1CCN(C(=O)C2(O)CC2)CC1` [1-[(4-{[2-fluoro-4-(6-fluoroquinolin-2-yl)phenyl]carbonyl}piperazin-1-yl)carbonyl]cyclopropan-1-ol], the IC50 was under 500 nM. In turn, `C[C@H]1CN(C(=O)c2ccc(-c3ccc4c(c3)ncn4C)cc2F)CCN1C(=O)C1(O)CC1` [1-[(2S)-4-[2-fluoro-4-(1-methyl-1H-1,3-benzodiazol-5-yl)benzoyl]-2-methylpiperazine-1-carbonyl]cyclopropan-1-ol] returned an IC50 of under 500 nM.

`Cn1cnc2cc(-c3ccc(C(=O)N4CCN(C(=O)C5(O)CC5)CC4)cc3Cl)ccc21` [1-{4-[3-chloro-4-(1-methyl-1H-1,3-benzodiazol-5-yl)benzoyl]piperazine-1-carbonyl}cyclopropan-1-ol] returned a 50% inhibitory concentration (IC50) of under 500 nM. In turn, `Cn1cnc2cc(-c3ccc(C(=O)N4CCN(C(=O)C5(CO)CC5)CC4)cc3)ccc21` [(1-{4-[4-(1-methyl-1H-1,3-benzodiazol-5-yl)benzoyl]piperazine-1-carbonyl}cyclopropyl)methanol] came in with an IC50 of under 500 nM. On the same count and under the same terms, the value for `Cc1nn(-c2ccc(C(=O)N3CCN(C(=O)C4(O)CC4)CC3)c(F)c2)c2ccccc12` was under 500 nM.

Still in this test, the particulars now being: FASN enzymatic assay; Table 2-2.
`CC(C)n1ncc2cc(-c3ccc(C(=O)N4CCN(C(=O)C5(O)CC5)CC4)cc3)ccc21` [1-{[4-({4-[1-(propan-2-yl)-1H-indazol-5-yl]phenyl}carbonyl)piperazin-1-yl]carbonyl}cyclopropan-1-ol] displayed an IC50 of 500 to 5000 nM. Consider `Cc1noc2cc(-c3ccc(C(=O)N4CCN(C(=O)C5(O)CC5)CC4)cc3)ccc12` [1-[(4-{[4-(3-methyl-1,2-benzoxazol-6-yl)phenyl]carbonyl}piperazin-1-yl)carbonyl]cyclopropan-1-ol], for which the IC50 was 500 to 5000 nM. For the molecule `O=C(c1ccc2nc(-c3ccc(F)cc3)sc2c1)N1CCN(C(=O)C2(O)CC2)CC1` [1-[(4-{[2-(4-fluorophenyl)-1,3-benzothiazol-6-yl]carbonyl}piperazin-1-yl)carbonyl]cyclopropan-1-ol], the IC50 was in the range of 500 to 5000 nM. In turn, `CNC(=O)c1ccc(F)c(-c2ccc(C(=O)N3CCN(C(=O)C4(O)CC4)CC3)cc2)c1` [4-fluoro-3-[4-({4-[(1-hydroxycyclopropyl)carbonyl]piperazin-1-yl}carbonyl)phenyl]-N-methylbenzamide] yielded an IC50 of 500 to 5000 nM.

As for `Cc1ccc(F)c(-c2ccc(C(=O)N3CCN(C(=O)C4(O)CC4)CC3)cc2)c1` [1-[(4-{[4-(2-fluoro-5-methylphenyl)phenyl]carbonyl}piperazin-1-yl)carbonyl]cyclopropan-1-ol], the IC50 fell in the range of 500 to 5000 nM.

The same test, now with this note: FASN enzymatic assay; Table 2-3.
As for `O=C(c1ccc(-c2cn3cc(F)ccc3n2)cc1)N1CCN(C(=O)C2(O)CC2)CC1` [1-({4-[(4-{6-fluoroimidazo[1,2-a]pyridin-2-yl}phenyl)carbonyl]piperazin-1-yl}carbonyl)cyclopropan-1-ol], the IC50 was at least 5000 nM. As to `CC(C)(O)C(=O)N1CCN(C(=O)c2ccc(-c3ccccc3)cc2)CC1` [2-hydroxy-2-methyl-1-{4-[(4-phenylphenyl)carbonyl]piperazin-1-yl}propan-1-one], the IC50 was at least 5000 nM. In the case of `O=C(c1cn2cc(-c3ccccc3)ccc2n1)N1CCN(C(=O)C2(O)CC2)CC1` [1-{[4-({6-phenylimidazo[1,2-a]pyridin-2-yl}carbonyl)piperazin-1-yl]carbonyl}cyclopropan-1-ol], the IC50 is at least 5000 nM. In turn, `O=C(c1cn2cc(-c3ccc(F)cc3)ccc2n1)N1CCN(C(=O)C2(O)CC2)CC1` [1-[(4-{[6-(4-fluorophenyl)imidazo[1,2-a]pyridin-2-yl]carbonyl}piperazin-1-yl)carbonyl]cyclopropan-1-ol] had an IC50 of at least 5000 nM.
